Source: patent publication US11986532B2 (Arvinas Operations, Inc., priority 2021, dated 2024)
Where two headings read alike, the source gives them in different places.

Molecular target: T1, BCL6 (Homo sapiens, UniProt P41182)
T1 construct: endogenous in cells; host or cells: T47D breast cancer epithelial cells
Assay: Immunofluorescence protocol for high content imaging of BCL6 (degradation) in T47D cells, 3 days compound treatment
Assay type: cell-based
Settings: for Dmax: read-out: Mean Dmax (%)** category; for DC50: read-out: Mean DC50 (nM)* category
Outline: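 T47D, RPMI1640/10% FBS; cpd 11-pt 3-fold, top 0.1 or 1 μM final; 3 d, 37° C. Fix 4% PFA, perm 0.1% Triton, block 3% BSA; anti-BCL6 1:300 o/n 4° C; Alexa-488 2°, CellMask-647, Hoechst. Imaged 10×, 4 fields/well.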

[1] = T47D cells, 3 days compound treatment

| SMILES | DC50 [1] [nM] | Dmax [1] [%] | Dmax (T47D) [%] | DC50 [nM] |
| --- | --- | --- | --- | --- |
| CNC(=O)COc1cc2cc(Nc3nc(N4CCC(O[C@H]5C[C@H](N6[C@@H](C)CN(c7ccc8c(c7)C(=O)N(C7CCC(=O)NC7=O)C8=O)C[C@@H]6C)C5)CC4)ncc3Cl)ccc2n(C(C)C)c1=O (stereo partly drawn) [Compound 253, 2-({6-[(5-chloro-2-{4-[(1r,3r)-3-[(2S,6S)-4-[2-(2,6-dioxopiperidin-3-yl)-1,3-dioxo-2,3-dihydro-1H-isoindol-5-yl]-2,6-dimethylpiperazin-1-yl]cyclobutoxy]piperidin-1-yl}pyrimidin-4-yl)amino]-2-oxo-1-(propan-2-yl)-1,2-dihydroquinolin-3-yl}oxy)-N-methylacetamide] |  |  | ≥ 70 | 10 to 50 |
| CNC(=O)COc1cc2cc(Nc3nc(N4CCC(O[C@H]5C[C@H](N6CCC(F)(c7ccc8c(c7F)CN(C7CCC(=O)NC7=O)C8=O)CC6)C5)CC4)ncc3Cl)ccc2n(C(C)C)c1=O (some centres unmarked) [Compound 278, 2-({6-[(5-chloro-2-{4-[(1r,3r)-3-{4-[2-(2,6-dioxopiperidin-3-yl)-4-fluoro-1-oxo-2,3-dihydro-1H-isoindol-5-yl]-4-fluoropiperidin-1-yl}cyclobutoxy]piperidin-1-yl}pyrimidin-4-yl)amino]-2-oxo-1-(propan-2-yl)-1,2-dihydroquinolin-3-yl}oxy)-N-methylacetamide] |  |  | ≥ 70 | < 10 |
| CNC(=O)COc1cc2cc(Nc3nc(N4CCC(O[C@H]5C[C@H](N6CCC(c7cc8c(cc7OC)C(=O)N(C7CCC(=O)NC7=O)C8)CC6)C5)CC4)ncc3Cl)ccc2n(C(C)C)c1=O (some centres unmarked) [Compound 348, 2-({6-[(5-chloro-2-{4-[(1r,3r)-3-{4-[2-(2,6-dioxopiperidin-3-yl)-6-methoxy-1-oxo-2,3-dihydro-1H-isoindol-5-yl]piperidin-1-yl}cyclobutoxy]piperidin-1-yl}pyrimidin-4-yl)amino]-2-oxo-1-(propan-2-yl)-1,2-dihydroquinolin-3-yl}oxy)-N-methylacetamide] |  |  | ≥ 70 | < 10 |
| CNC(=O)COc1cc2cc(Nc3nc(N4CCC(O[C@H]5C[C@H](N6CCC7(CN(c8ccc9c(c8)CN(C8CCC(=O)NC8=O)C9=O)C7)C6)C5)CC4)ncc3Cl)ccc2n(C(C)C)c1=O (some centres unmarked) [Compound 344, 2-({6-[(5-chloro-2-{4-[(1r,3r)-3-{2-[2-(2,6-dioxopiperidin-3-yl)-1-oxo-2,3-dihydro-1H-isoindol-5-yl]-2,6-diazaspiro [3.4]octan-6-yl}cyclobutoxy]piperidin-1-yl}pyrimidin-4-yl)amino]-2-oxo-1-(propan-2-yl)-1,2-dihydroquinolin-3-yl}oxy)-N-methylacetamide] |  |  | < 50 | < 10 |
| CNC(=O)COc1cc2cc(Nc3nc(N4CCC(O[C@H]5C[C@H](N6CCC(F)(c7ccc8c(c7)C(=O)N(C7CCC(=O)NC7=O)C8=O)CC6)C5)CC4)ncc3Cl)ccc2n(C(C)C)c1=O (some centres unmarked) [Compound 276, 2-({6-[(5-chloro-2-{4-[(1r,3r)-3-{4-[2-(2,6-dioxopiperidin-3-yl)-1,3-dioxoisoindol-5-yl]-4-fluoropiperidin-1-yl}cyclobutoxy]piperidin-1-yl}pyrimidin-4-yl)amino]-1-isopropyl-2-oxoquinolin-3-yl}oxy)-N-methylacetamide] |  |  | 50 to 70 | 10 to 50 |
| CNC(=O)COc1cc2cc(Nc3nc(N4CCC(N5CCC56CN(C5CCN(c7ccc8c(c7)C(=O)N(C7CCC(=O)NC7=O)C8=O)CC5)C6)CC4)ncc3Cl)ccc2n(C(C)C)c1=O (centres unmarked) [Compound 220, 2-{[6-({5-chloro-2-[4-(6-{1-[2-(2,6-dioxopiperidin-3-yl)-1,3-dioxo-2,3-dihydro-1H-isoindol-5-yl]piperidin-4-yl}-1,6-diazaspiro[3.3]heptan-1-yl)piperidin-1-yl]pyrimidin-4-yl}amino)-2-oxo-1-(propan-2-yl)-1,2-dihydroquinolin-3-yl]oxy}-N-methylacetamide] |  |  | 50 to 70 | 10 to 50 |
| CNC(=O)COc1cc2cc(Nc3nc(N4CCC(N5CCC56CN(C5CCN(c7ccc8c(c7)CN(C7CCC(=O)NC7=O)C8=O)CC5)C6)CC4)ncc3Cl)ccc2n(C(C)C)c1=O (centres unmarked) [Compound 238, 2-{[6-({5-chloro-2-[4-(6-{1-[2-(2,6-dioxopiperidin-3-yl)-1-oxo-2,3-dihydro-1H-isoindol-5-yl]piperidin-4-yl}-1,6-diazaspiro[3.3]heptan-1-yl)piperidin-1-yl]pyrimidin-4-yl}amino)-2-oxo-1-(propan-2-yl)-1,2-dihydroquinolin-3-yl]oxy}-N-methylacetamide] |  |  | 50 to 70 | < 10 |
| CNC(=O)COc1cc2cc(Nc3nc(N4CCC(O[C@H]5C[C@H](N6CCN(c7ccc8c(c7F)CN([C@@H]7CCC(=O)NC7=O)C8=O)CC6)C5)CC4)ncc3Cl)ccc2n(C(C)C)c1=O [Compound 392, 2-({6-[(5-chloro-2-{4-[(1r,3r)-3-(4-{2-[(3R)-2,6-dioxopiperidin-3-yl]-4-fluoro-1-oxo-2,3-dihydro-1H-isoindol-5-yl}piperazin-1-yl)cyclobutoxy]piperidin-1-yl}pyrimidin-4-yl)amino]-2-oxo-1-(propan-2-yl)-1,2-dihydroquinolin-3-yl}oxy)-N-methylacetamide] |  |  | ≥ 70 | < 10 |
| CNC(=O)COc1cc2cc(Nc3nc(N4CCC(O[C@H]5C[C@H](N6CCC(c7cc(OC)c8c(c7F)CN([C@H]7CCC(=O)NC7=O)C8=O)CC6)C5)CC4)ncc3Cl)ccc2n(C(C)C)c1=O [Compound 407, 2-({6-[(5-chloro-2-{4-[(1r,3r)-3-(4-{2-[(3S)-2,6-dioxopiperidin-3-yl]-4-fluoro-7-methoxy-1-oxo-2,3-dihydro-1H-isoindol-5-yl}piperidin-1-yl)cyclobutoxy]piperidin-1-yl}pyrimidin-4-yl)amino]-2-oxo-1-(propan-2-yl)-1,2-dihydroquinolin-3-yl}oxy)-N-methylacetamide] |  |  | ≥ 70 | < 10 |
| CNC(=O)COc1cc2cc(Nc3nc(N4CCC(OC5CCC6(CC5)CN(c5c(F)ccc7c5CN(C5CCC(=O)NC5=O)C7=O)C6)CC4)ncc3Cl)ccc2n(C(C)C)c1=O (centres unmarked) [Compound 298, 2-{[6-({5-chloro-2-[4-({2-[2-(2,6-dioxopiperidin-3-yl)-5-fluoro-1-oxo-2,3-dihydro-1H-isoindol-4-yl]-2-azaspiro[3.5]nonan-7-yl}oxy)piperidin-1-yl]pyrimidin-4-yl}amino)-2-oxo-1-(propan-2-yl)-1,2-dihydroquinolin-3-yl]oxy}-N-methylacetamide] |  |  | 50 to 70 | < 10 |
| CNC(=O)COc1cc2cc(Nc3nc(N4CCN(CC5CCC6(CC5)CN(c5cc(F)cc7c5CN(C5CCC(=O)NC5=O)C7=O)C6)CC4)ncc3Cl)ccc2n(C(C)C)c1=O (centres unmarked) [Compound 315, 2-{[6-({5-chloro-2-[4-({2-[2-(2,6-dioxopiperidin-3-yl)-6-fluoro-1-oxo-2,3-dihydro-1H-isoindol-4-yl]-2-azaspiro[3.5]nonan-7-yl}methyl)piperazin-1-yl]pyrimidin-4-yl}amino)-2-oxo-1-(propan-2-yl)-1,2-dihydroquinolin-3-yl]oxy}-N-methylacetamide] |  |  | 50 to 70 | < 10 |
| CNC(=O)COc1cc2cc(Nc3nc(N4CCC(CN5CC(N6CCC(c7ccc8c(c7)C(=O)N(C7CCC(=O)NC7=O)C8=O)C(F)C6)C5)CC4)ncc3Cl)ccc2n(C(C)C)c1=O (centres unmarked) [Compound 213, 2-({6-[(5-chloro-2-{4-[(3-{4-[2-(2,6-dioxopiperidin-3-yl)-1,3-dioxo-2,3-dihydro-1H-isoindol-5-yl]-3-fluoropiperidin-1-yl}azetidin-1-yl)methyl]piperidin-1-yl}pyrimidin-4-yl)amino]-2-oxo-1-(propan-2-yl)-1,2-dihydroquinolin-3-yl}oxy)-N-methylacetamide] |  |  | 50 to 70 | 10 to 50 |

Continued, in another order:

| DC50 [1] [nM] | Dmax [1] [%] | SMILES | Dmax (T47D) [%] | DC50 [nM] |
| --- | --- | --- | --- | --- |
| < 10 | 50 to 70 | CNC(=O)COc1cc2cc(Nc3nc(N4CCC(CN5CC6(CCN(c7cccc8c7CN(C7CCC(=O)NC7=O)C8=O)CC6(F)F)C5)CC4)ncc3Cl)ccc2n(C(C)C)c1=O (centres unmarked) [Compound 125, 2-{[6-({5-chloro-2-[4-({7-[2-(2,6-dioxopiperidin-3-yl)-1-oxo-2,3-dihydro-1H-isoindol-4-yl]-5,5-difluoro-2,7-diazaspiro[3.5]nonan-2-yl}methyl)piperidin-1-yl]pyrimidin-4-yl}amino)-2-oxo-1-(propan-2-yl)-1,2-dihydroquinolin-3-yl]oxy}-N-methylacetamide] |  |  |
| < 10 | 50 to 70 | CNC(=O)COc1cc2cc(Nc3nc(N4CCC5(CCN(CC6CCN(c7ccc8c(c7)CN(C7CCC(=O)NC7=O)C8=O)CC6)C5)C4)ncc3Cl)ccc2n(C(C)C)c1=O (centres unmarked) [Compound 3, 2-{[6-({5-chloro-2-[7-({1-[2-(2,6-dioxopiperidin-3-yl)-1-oxo-2,3-dihydro-1H-isoindol-5-yl]piperidin-4-yl}methyl)-2,7-diazaspiro[4.4]nonan-2-yl]pyrimidin-4-yl}amino)-2-oxo-1-(propan-2-yl)-1,2-dihydroquinolin-3-yl]oxy}-N-methylacetamide] |  |  |
| < 10 | 50 to 70 | CNC(=O)COc1cc2cc(Nc3nc(N4CCN(CC5CCN(c6cc7c(c(OC)c6)C(=O)N(C6CCC(=O)NC6=O)C7)CC5)CC4)ncc3Cl)ccc2n(C(C)C)c1=O (centres unmarked) [Compound 26] |  |  |
| < 10 | 50 to 70 | CNC(=O)COc1cc2cc(Nc3nc(N4CCN(C(C)(C)C5CCN(c6cc7c(c(OC)c6)C(=O)N(C6CCC(=O)NC6=O)C7)CC5)CC4)ncc3Cl)ccc2n(C(C)C)c1=O (centres unmarked) [Compound 77, 2-{[6-({5-chloro-2-[4-(2-{1-[2-(2,6-dioxopiperidin-3-yl)-7-methoxy-1-oxo-2,3-dihydro-1H-isoindol-5-yl]piperidin-4-yl}propan-2-yl)piperazin-1-yl]pyrimidin-4-yl}amino)-2-oxo-1-(propan-2-yl)-1,2-dihydroquinolin-3-yl]oxy}-N-methylacetamide] |  |  |
